{
  "source": "patent US7527938B2",
  "about": "“Methods for diagnosis and treatment of chronic immune diseases” (R.E.D. Laboratories N.V./S.A., priority 2001, dated 2009)",
  "tested_on": "Stat-1-specific proteases in PBMC extracts",
  "assay": "Effect of protease inhibitors on Stat-1 protein degradation in mixed PBMC extracts (Western blot)",
  "assay_type": "biochemical, human",
  "conditions": "healthy control PBMC extract mixed with CFS patient PBMC extract (RNase L ratio=3.0), 37 C, 15 minutes; inhibitor 50 micromolar final concentration; anti-Stat-1 Western blot (FIG. 4)",
  "procedure": "One of the two extracts used was from a healthy control (i.e., RNase L ratio<0.2; no protease present, detectable levels of Stat-1 protein). The other extract was from a patient with CFS (i.e., RNase L ratio>2.0; protease(s) present, no detectable level of Stat-1 protein).\nSixty (60) micrograms of PBMC extract from the healthy control was mixed with 60 micrograms of PBMC extract from a CFS patient and incubated at 37 C for 15 minutes in the presence of a) buffer only, b) DMSO (solvent for the protease inhibitors), c) Calpastatine, 50 micromolar final concentration, d) Calpain Inhibitor Type I, 200 micromolar final concentration, e) Calpain Inhibitor Type II, 200 micromolar final concentration, f) Caspase 3 Inhibitor Type II, 5 micromolar final concentration, or g) Proteasome Inhibitor (MG 132), 50 micromolar final concentration. All protease inhibitors above, as well as DMSO, were from Sigma Chemical Company.\nAfter the 15 minute incubation, 2×SDS-PAGE gel sample dye was added and the sample heated to 95 C for five minutes to denature the proteins. The denatured samples were then subjected to standard SDS-PAGE using a 4 percent stacking gel and 10 percent separating gel. Transfer to PVDF membrane, Western blot with anti-Stat-1 antibody, and color development were performed exactly as described above.",
  "note": "Where a SMILES comes first, the peptide text is derived from it. The star is where a group is joined. Cbz = O=C(OCc1ccccc1)*",
  "data": [
    {"smiles": "CC(C)C[C@@H](C=O)NC(=O)[C@H](CC(C)C)NC(=O)[C@H](CC(C)C)NC(=O)OCc1ccccc1", "note": "[MG 132] (Cbz-Leu-Leu-Leu-aldehyde)", "values": [
      {"measurement": "degradation of Stat-1 protein", "value": "inhibited"}
    ]}
  ]
}
